Data reported in publication PMC10476022 (RSC Advances, 2023).
Entries after “also recorded” stand apart in the source; their conditions may differ.

Experiments:
hAChE = biological target: T1, hAChE (Homo sapiens, UniProt P22303); test: biochemical; conditions: for Selectivity ratio: (IC50 of BuChE)/(IC50 of AChE); for IC50: tris-HCl buffer pH 8.0, read-out: IC50 ± SE hAChE
T1 construct: purchased Sigma Aldrich
Procedure: (§1) Himedia supplied Acetylthiocholine iodide (AthCI), Butyrylthiocholine iodide (BthCI), and 5,5′-dithiobis (2-nitrobenzoic acid) (DTNB-reagent). […] AChE (50 μL, 1.00 U mL^−1) or BuChE (50 μL, 0.6 U mL^−1) and 20 μL of the test or standard compounds were incubated in a 96 well plate for 30 minutes at room temperature. […] The IC50 values were determined by measuring the absorbance of the test and standard substances. Three independent runs of the assays were conducted in triplicate.

hBuChE = biological target: T2, hBuChE (Homo sapiens, UniProt P06276); test: biochemical; type: biochemical; conditions: for IC50: tris-HCl buffer pH 8.0, read-out: IC50 ± SE hBuChE
T2 construct: purchased Sigma Aldrich
Procedure: as §1

[1] = Antioxidant potential by DPPH assay
From the text: Assessment of the toxicity is the prerequisite study for the synthetic derivatives. […] AChE enzyme provides the site for the aggregation of the Aβ1–42.

SH-SY5Y cell line = test: Cell line-based toxicity study (MTT assay); conditions: 72 h
Procedure: In recent decades, in vitro cell line research has become commonplace since they are useful for primary optimization and mechanistic investigations before toxicological studies on animals.[29]
Briefly, the cell lines (density 1 × 10^4 cells per wells) were plated in 96 well plates and incubated for 24 h at 37 °C in a humidified atmosphere with 5% CO2. […] The absorbance was measured at 570 nm, and the percent cell viability was calculated. Each treatment was executed in triplicate and data were presented as a percentage of the control.

Aβ1–42 = system: T3, Aβ1–42; test: AChE-induced Aβ1–42 aggregation assay (ThT); type: biochemical
T3 construct: Aβ1–42, purchased from Sigma, was dissolved in 10 mM phosphate buffer; purchased Sigma
Procedure: The Aβ oligomers and aggregates formed with or without AChE and metal ions induce multifaceted toxicity leading to neuronal cell death. […] Aβ1–42, purchased from Sigma, was dissolved in 10 mM phosphate buffer (PBS) of pH 7.5 to get a stock concentration of […]. The test compounds were dissolved in the DMSO and further diluted with PBS. Different proportions of the Aβ1-42: Inhibitor (1 : 0.05, 1 : 1, 1 : 2) were used in the ThT assay. […] The mixtures were incubated at room temperature for 48 hours in the dark.

T1 sequence (P22303 32-614): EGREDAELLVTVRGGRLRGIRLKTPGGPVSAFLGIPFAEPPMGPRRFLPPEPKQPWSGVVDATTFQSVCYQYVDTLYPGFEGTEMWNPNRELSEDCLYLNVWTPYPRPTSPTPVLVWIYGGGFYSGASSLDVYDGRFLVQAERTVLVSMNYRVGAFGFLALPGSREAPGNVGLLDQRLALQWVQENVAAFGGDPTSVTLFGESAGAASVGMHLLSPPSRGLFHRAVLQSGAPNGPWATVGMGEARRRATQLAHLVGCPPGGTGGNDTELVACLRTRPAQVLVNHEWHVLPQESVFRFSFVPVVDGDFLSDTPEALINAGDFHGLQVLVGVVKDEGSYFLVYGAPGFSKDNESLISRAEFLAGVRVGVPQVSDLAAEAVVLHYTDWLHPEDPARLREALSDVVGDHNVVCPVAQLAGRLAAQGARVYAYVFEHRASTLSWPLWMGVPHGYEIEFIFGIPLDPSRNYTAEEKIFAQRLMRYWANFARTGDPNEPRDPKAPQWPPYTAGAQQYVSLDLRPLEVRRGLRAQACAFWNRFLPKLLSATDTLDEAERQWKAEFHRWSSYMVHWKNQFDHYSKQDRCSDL

SMILES | Selectivity ratio (hAChE) | IC50 (hAChE) | IC50 (hBuChE) | % free radicle scavenging, mean ± SE ([1]; 50 μM) | % free radicle scavenging, mean ± SE ([1]; 100 μM) | concentration with no significant toxicity (SH-SY5Y cell line) | effect on AChE-induced Aβ1–42 aggregation (in words) (Aβ1–42; 0.5, 10, 20 μM, 48 h incubation) | AChE-induced Aβ aggregation inhibited (Aβ1–42; tested at 0.5, 10 and 20 μM) | BuChE inhibition (in words) (hBuChE)
COc1ccc2c(c1)c(CC(=O)NN=Cc1c(O)cccc1O)c(C)n2C(=O)c1ccc(Cl)cc1 [IND-40, (1-(4-Chlorobenzoyl)-5-methoxy-2-methyl-1H-indol-3-yl)-N′-(2,6-dihydroxybenzylidene)aceto-hydrazide] | 9.77 | 70.54 ± 0.133 µM | 689.12 ± 0.128 µM | 24.10 ± 0.889% | 50.39 ± 0.930% | – | – | – | –
COc1ccc2c(c1)c(CC(=O)NN=Cc1ccc(O)cc1)c(C)n2C(=O)c1ccc(Cl)cc1 [IND-30, (1-(4-Chlorobenzoyl)-5-methoxy-2-methyl-1H-indol-3-yl)-N′-(4-hydroxybenzylidene)aceto-hydrazide] | 22.92 | 4.16 ± 0.063 µM | 95.34 ± 0.144 µM | 15.19 ± 0.881% | 30.65 ± 1.010% | ≤ 30000 µM | effective only at the higher dose (20 μM); also recorded: decreased Aβ aggregation in a concentration-dependent manner; also recorded: active at 20 μM | ~50% | –
COc1cccc(C=NNC(=O)Cc2c(C)n(C(=O)c3ccc(Cl)cc3)c3ccc(OC)cc23)c1 [IND-25, (1-(4-Chlorobenzoyl)-5-methoxy-2-methyl-1H-indol-3-yl)-N′-(3-methoxybenzylidene) aceto-hydrazide] | – | 264.23 ± 0.102 µM | > 1000 µM | 11.51 ± 0.748% | 27.99 ± 1.127% | – | – | – | inactive on the BuChE enzyme
COc1ccc2c(c1)c(CC(=O)NN=Cc1ccccc1OC)c(C)n2C(=O)c1ccc(Cl)cc1 [IND-31, (1-(4-Chlorobenzoyl)-5-methoxy-2-methyl-1H-indol-3-yl)-N′-(2-methoxybenzylidene)aceto-hydrazide] | – | 421.22 ± 0.086 µM | > 1000 µM | 9.75 ± 0.625% | 26.43 ± 0.887% | – | – | – | inactive on hBuChE
COc1ccc2c(c1)c(CC(=O)NN=Cc1cccc(O)c1)c(C)n2C(=O)c1ccc(Cl)cc1 [IND-24, (1-(4-Chlorobenzoyl)-5-methoxy-2-methyl-1H-indol-3-yl)-N′-(3-hydroxybenzylidene) aceto-hydrazide] | 7.83 | 12.5 ± 0.143 µM | 98.18 ± 0.12 µM | 17.68 ± 0.478% | 34.34 ± 1.333% | – | – | – | –
O=C1O[C@H]([C@@H](O)CO)C(O)=C1O [Ascorbic acid, reference compound] | – | – | – | 42.66 ± 1.491% | 76.76 ± 0.708% | – | – | – | –
COc1ccc2c(c1)c(CC(=O)NN=Cc1cccc(O)c1O)c(C)n2C(=O)c1ccc(Cl)cc1 [IND-42, (1-(4-Chlorobenzoyl)-5-methoxy-2-methyl-1H-indol-3-yl)-N′-(2,3-dihydroxybenzylidene)aceto-hydrazide] | 5.44 | 122.75 ± 0.086 µM | 668.22 ± 0.133 µM | 18.21 ± 0.598% | 38.87 ± 1.012% | – | – | – | –
